In patent US9328083B2, “2-aminated methylene or 2-esterified methylene tanshinone derivatives, and preparation method and application thereof” (HANGZHOU BENSHENG PHARMACEUTICAL CO., LTD., priority 2011, dated 2016):
Converted amounts (≈) assume the structure as drawn.

Key:
[1] = test system: Kasumi-1 (acute myeloid leukemia M2 type, AML-M2); experiment: MTT growth inhibition of leukemia cells, 72 h; format: cell-based, human; conditions: Homo sapiens, Kasumi-1, 72 h; for IC50: read-out: IC50; for IC90: read-out: IC90
How it was run: (§1)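 Leukemia cells were seeded at 6000 per well in RPMI-1640 with 10% fetal bovine serum. Tanshinone I derivatives, from 10 mg/mL DMSO stocks diluted in medium, were added at various concentrations on the following day. After 72 h at 37 °C under 5% CO2, viable cells were measured by MTT.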

[2] = test system: K562/adr (drug-resistant, chronic myeloid leukemia, CML); experiment: MTT growth inhibition of leukemia cells, 72 h; format: cell-based, human; conditions: Homo sapiens, K562/Adr; for IC50: read-out: IC50; for IC90: read-out: IC90
How it was run: as §1

[3] = test system: H9 (acute lymphoblastic leukemia, ALL); experiment: MTT growth inhibition of leukemia cells, 72 h; format: cell-based, human; conditions: Homo sapiens, H9, 72 h; for IC50: read-out: IC50; for IC90: read-out: IC90
How it was run: as §1

[4] = test system: Jurkat (acute lymphoblastic leukemia, ALL); experiment: MTT growth inhibition of leukemia cells, 72 h; format: cell-based, human; conditions: Homo sapiens, 72 h; for IC50: read-out: IC50; for IC90: read-out: IC90
How it was run: as §1

[5] = test system: NB4 (acute promyelocytic leukemia, AML); experiment: MTT growth inhibition of leukemia cells, 72 h; format: cell-based, human; conditions: Homo sapiens, NB4, 72 h; for IC50: read-out: IC50; for IC90: read-out: IC90
How it was run: as §1

[6] = test system: RPMI8226 (multiple myeloma); experiment: MTT growth inhibition of multiple myeloma cells, 72 h; format: cell-based, human; conditions: Homo sapiens, RPMI 8226, 72 h; for IC50: read-out: IC50; for IC90: read-out: IC90
How it was run: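 RPMI8226 myeloma cells, 6000 per well in 1640 medium with 10% FBS, exposed to compounds at a range of concentrations (diluted from 10 mg/mL DMSO stock) for 72 h at 37° C, 5% CO2. Viable cells then determined by MTT.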

[7] = test system: Hep-2 (laryngeal carcinoma); experiment: MTT growth inhibition of human solid tumor cells, 72 h; format: cell-based; conditions: Homo sapiens, HEp-2, 72 h; for IC50: read-out: IC50; for IC90: read-out: IC90
How it was run: (§2)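 Viable cell concentration serves as the endpoint. Compounds were dissolved in DMSO at 10 mg/mL (stock) and brought to working concentrations in medium; cells, 4000 per well, had been cultured a day beforehand at 37° C.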

PC-3 (prostate cancer) = experiment: as above; format: cell-based; conditions: Homo sapiens, PC-3, 72 h; for IC50: read-out: IC50; for IC90: read-out: IC90
How it was run: as §2

[8] = test system: Hep G2 (human liver cancer cell); experiment: as above; format: cell-based; conditions: Homo sapiens, HepG2, Hep G2, 72 h; for IC50: read-out: IC50; for IC90: read-out: IC90
How it was run: as §2

[9] = test system: Hela (human cervical cancer cell); experiment: as above; format: cell-based; conditions: Homo sapiens, HeLa, 72 h; for IC50: read-out: IC50; for IC90: read-out: IC90
How it was run: as §2

[10] = test system: MGC 803 (human gastric cancer cell); experiment: as above; format: cell-based; conditions: Homo sapiens, MGC-803, 72 h; for IC50: read-out: IC50; for IC90: read-out: IC90
How it was run: as §2

[11] = test system: RKO (human colon adenocarcinoma cell); experiment: as above; format: cell-based; conditions: Homo sapiens; for IC50: read-out: IC50; for IC90: read-out: IC90
How it was run: as §2

[12] = test system: U87 MG (malignant glioma cell); experiment: as above; format: cell-based; conditions: Homo sapiens, U-87 MG, U87-MG, 72 h; for IC50: read-out: IC50; for IC90: read-out: IC90
How it was run: as §2

A549 (human lung cancer) = experiment: as above; format: cell-based; conditions: Homo sapiens, A549, 72 h; for IC50: read-out: IC50; for IC90: read-out: IC90
How it was run: as §2

[13] = test system: PANC-1 (pancreatic cancer); experiment: as above; format: cell-based; conditions: Homo sapiens, PANC-1, 72 h; for IC50: read-out: IC50; for IC90: read-out: IC90
How it was run: as §2

[14] = test system: Becap37 (human breast cancer cell); experiment: as above; format: cell-based; conditions: Homo sapiens, Becap-37, 72 h; for IC50: read-out: IC50; for IC90: read-out: IC90
How it was run: as §2

[15] = test system: CNE (nasopharyngeal carcinoma cell); experiment: as above; format: cell-based; conditions: Homo sapiens; for IC50: read-out: IC50; for IC90: read-out: IC90
How it was run: as §2

[16] = test system: SK-OV-3 (ovarian cancer cell); experiment: as above; format: cell-based; conditions: Homo sapiens, SK-OV-3, 72 h; for IC50: read-out: IC50; for IC90: read-out: IC90
How it was run: as §2

MG63 (osteosarcoma) = experiment: as above; format: cell-based; conditions: Homo sapiens, MG-63, 72 h; for IC50: read-out: IC50; for IC90: read-out: IC90
How it was run: as §2

[17] = test system: CaES-17 (esophageal cancer cell); experiment: as above; format: cell-based; conditions: Homo sapiens, CaEs17, CaEs-17, 72 h; for IC50: read-out: IC50; for IC90: read-out: IC90
How it was run: as §2

IC50 [1] [µg/mL]	IC90 [1] [µg/mL]	IC50 [2] [µg/mL]	IC90 [2] [µg/mL]	IC50 [3] [µg/mL]	IC90 [3] [µg/mL]	IC50 [4] [µg/mL]	IC90 [4] [µg/mL]	IC50 [5] [µg/mL]	IC90 [5] [µg/mL]	IC50 [6] [µg/mL]	IC90 [6] [µg/mL]	IC50 [7] [µg/mL]	IC90 [7] [µg/mL]	IC50 (PC-3 (prostate cancer)) [µg/mL]	IC90 (PC-3 (prostate cancer)) [µg/mL]	IC50 [8] [µg/mL]	IC90 [8] [µg/mL]	IC50 [9] [µg/mL]	IC90 [9] [µg/mL]	SMILES	other results
0.89 (≈ 2.21 µM)	1.9 (≈ 4.72 µM)	1.5 (≈ 3.73 µM)	2.79 (≈ 6.93 µM)	4.11 (≈ 10.2 µM)	10.5 (≈ 26.1 µM)	1.78 (≈ 4.42 µM)	5.91 (≈ 14.7 µM)	0.94 (≈ 2.34 µM)	1.9 (≈ 4.72 µM)	3.72 (≈ 9.24 µM)	7.13 (≈ 17.7 µM)	4.01 (≈ 9.96 µM)	9.08 (≈ 22.6 µM)	9.3 (≈ 23.1 µM)	11.2 (≈ 27.8 µM)	3.8 (≈ 9.44 µM)	7.96 (≈ 19.8 µM)	1.46 (≈ 3.63 µM)	3.58 (≈ 8.89 µM)	Cc1c(CN2CCCN(C)CC2)oc2c1C(=O)C(=O)c1c-2ccc2c(C)cccc12 [BS-TA-B12]	IC50 [10]: 2.48 µg/mL (≈ 6.16 µM); IC90 [10]: 5.05 µg/mL (≈ 12.5 µM); IC50 [11]: 0.7 µg/mL (≈ 1.74 µM); IC90 [11]: 5.26 µg/mL (≈ 13.1 µM); IC50 [12]: 1.16 µg/mL (≈ 2.88 µM); IC90 [12]: 3.4 µg/mL (≈ 8.45 µM); IC50 (A549 (human lung cancer)): 1.65 µg/mL (≈ 4.1 µM); IC90 (A549 (human lung cancer)): 4.33 µg/mL (≈ 10.8 µM); IC50 [13]: 1.06 µg/mL (≈ 2.63 µM); IC90 [13]: 4.16 µg/mL (≈ 10.3 µM); IC50 [14]: 3.34 µg/mL (≈ 8.3 µM); IC90 [14]: 7.38 µg/mL (≈ 18.3 µM); IC50 [15]: 0.45 µg/mL (≈ 1.12 µM); IC90 [15]: 0.62 µg/mL (≈ 1.54 µM); IC50 [16]: 2.53 µg/mL (≈ 6.29 µM); IC90 [16]: 3.84 µg/mL (≈ 9.54 µM); IC50 (MG63 (osteosarcoma)): 3.37 µg/mL (≈ 8.37 µM); IC90 (MG63 (osteosarcoma)): 5.49 µg/mL (≈ 13.6 µM); IC50 [17]: 0.73 µg/mL (≈ 1.81 µM); IC90 [17]: 1.97 µg/mL (≈ 4.89 µM)
0.6 (≈ 1.54 µM)	1.99 (≈ 5.11 µM)	0.77 (≈ 1.98 µM)	1.82 (≈ 4.67 µM)	2 (≈ 5.13 µM)	11.9 (≈ 30.6 µM)	6.66 (≈ 17.1 µM)	> 16	3.59 (≈ 9.22 µM)	13.7 (≈ 35.2 µM)	8 (≈ 20.5 µM)	> 16	14.3 (≈ 36.7 µM)	35.2 (≈ 90.5 µM)	14.7 (≈ 37.6 µM)	> 16	16 (≈ 41.1 µM)	> 16	5.28 (≈ 13.6 µM)	84.2 (≈ 216 µM)	Cc1c(CNCCC(C)(C)C)oc2c1C(=O)C(=O)c1c-2ccc2c(C)cccc12 [BS-TA-B14]	IC50 [10]: 14.4 µg/mL (≈ 37 µM); IC90 [10]: > 16 µg/mL; IC50 [11]: 3.36 µg/mL (≈ 8.63 µM); IC90 [11]: > 16 µg/mL; IC50 [12]: 3.85 µg/mL (≈ 9.88 µM); IC90 [12]: > 16 µg/mL; IC50 (A549 (human lung cancer)): 1.75 µg/mL (≈ 4.49 µM); IC90 (A549 (human lung cancer)): 9 µg/mL (≈ 23.1 µM); IC50 [13]: 1.88 µg/mL (≈ 4.83 µM); IC90 [13]: 6.19 µg/mL (≈ 15.9 µM); IC50 [14]: 4.6 µg/mL (≈ 11.8 µM); IC90 [14]: > 16 µg/mL; IC50 [15]: > 16 µg/mL; IC90 [15]: > 16 µg/mL; IC50 [16]: > 16 µg/mL; IC90 [16]: > 16 µg/mL; IC50 (MG63 (osteosarcoma)): 4.86 µg/mL (≈ 12.5 µM); IC90 (MG63 (osteosarcoma)): > 16 µg/mL; IC50 [17]: > 16 µg/mL; IC90 [17]: > 16 µg/mL
